Experimental data as given in paper PMC6770581, “New Thalidomide-Resembling Dicarboximides Target ABC50 Protein and Show Antileukemic and Immunomodulatory Activities” (Biomolecules, 2019).

What was measured:
[1] = tested on: MOLT-4 cells; experiment: MTT cytotoxicity assay, MOLT-4; type: cell-based; conditions: Homo sapiens, 48 h, mean ± SD
Protocol: (§1) Human umbilical vein endothelial cells (purchased from Life Technologies, Carlsbad, CA, USA) were cultured according to the manufacturer’s instructions in Medium 200 supplemented with Low Serum Growth Supplement. 1 × 10^4 cells were seeded on each well on a 96-well plate (Nunc, Roskilde, Denmark). The HeLa (human cervix carcinoma, cat. #93021013), CFPAC (human pancreatic adenocarcinoma, cat. #91112501), K562 (chronic myelogenous leukemia, cat. #89121407), HL-60 (acute myelogenous leukemia, cat. #98070106), and MOLT-4 (Human acute T lymphoblastic leukemia, cat. #85011413) cells were purchased from European Collection of Authenticated Cell Cultures (ECACC). They were cultured in an RPMI 1640 medium supplemented with antibiotics (streptomycin, penicillin) and 10% fetal calf serum (20% for HL60), in a 5% CO2-95% air atmosphere. 7 × 10^3 cells were seeded on each well on a 96-well plate (Nunc). 24 hours later the cells were exposed to the test compounds. The aliquots of stock solutions of the test compounds (freshly prepared in DMSO) were added to the cell cultures to yield final concentrations of 1, 10^−1, 10^−2, 10^−3, 10^−4, and 10^−5 mM. The concentration of DMSO in the cell culture medium was 1%. The IC50 value (the concentration of a test compound required to reduce the cell survival fraction to 50% of the control) was calculated from a dose-response curve and used as a measure of cellular sensitivity to a given treatment. The IC50 values are given as means (± standard deviation (SD)) from 2 independent experiments with 4 technical replicates. The cytotoxicity of all compounds was determined by the MTT (3-(4,5-dimethylthiazol-2-yl)-2,5-diphenyltetrazolium bromide) assay (Sigma, St. Louis, MO, USA). Briefly, after 24 h or 48 h of incubation with a given compound, the cells were treated with the MTT reagent and incubation was continued for 2 h. MTT-formazan crystals were dissolved in 20% SDS and 50% DMF at pH 4.7 and VIS light absorption was measured at 570 and 650 nm on a microplate reader FLUOstar Omega (BMG Labtech, Offenburg, Germany). As a control (100% viability), cells grown in the presence of 1% DMSO were used.

[2] = tested on: IKZF1 and IKZF3; experiment: IKZF1 and IKZF3 level by immunoblotting in MOLT-4 cells; type: cell-based, human; conditions: MOLT-4, 48 h, 3 (5 µM), 5 (10 µM), 6 (2 µM)
Protocol: K562 or MOLT4 cells were seeded on 6-well plate (2 × 10^6 cells/well) in a RPMI 1640 medium containing 10% FBS. MOLT4 cells were exposed to 1% DMSO (vehicle control), test compounds 6 (2 µM), 3 (5 µM), 5 (10 µM). Similarly, K562 cells were exposed to 1% DMSO, test compounds 6 (1 µM), 3 (1 µM), 5 (1 µM) for 48 h. Cells treated with 100 µM thalidomide or 10 µM lenalidomide served as positive controls. After incubation, cells were centrifuged (600 rpm, 6 min, 24 °C), washed once with PBS and lysed in 20 mM Tris (pH 7.2) containing 1% Triton X-100 supplemented with Complete® protease inhibitors cocktail (Roche). The levels of IKZF1 and IKZF3 were assessed by immunoblotting (IB).
Cells were lysed in TBS buffer containing 1% Triton X-100 and Complete® protease inhibitor cocktail (Roche) for 15 min on ice with occasional vortexing. Insoluble material was centrifuged (12,000 rpm, 15 min, 4 °C) and supernatants were collected. Total protein concentration was measured with DC Protein Assay (Bio-Rad, Hercules, CA, USA). Cell lysates containing 30 µg of total protein were mixed with Laemli buffer supplemented with SDS and β-mercaptoethanol, denatured (10 min, 95 °C) and subjected to sodium dodecyl sulfate polyacrylamide gel electrophoresis (SDS-PAGE) electrophoresis (4% stacking and 10% resolving gels). Resolved proteins were electrotransferred (semi-dry, 90 min, 1.5 mA/cm^2) to a 0.45 µm nitrocellulose membrane (Thermo Scientific, Waltham, MA, USA). Membranes were blocked for 2 hours in TBST buffer (20 mM Tris-HCl pH 7.5, 0.9% NaCl, 0.1% Tween 20) containing 5% BSA (BioShop, Burlington, ON, Canada) and probed with primary antibodies (overnight at 4 °C) diluted in TBST buffer with 0.5% BSA. Tubulin served as a loading control for IB experiments. Anti IKZF3 (rabbit monoclonal, dilution 1:500), anti IKZF1 (rabbit polyclonal, dilution 1:500) were from Abcam. Anti IRF4 (rabbit polyclonal, dilution 1:500) were from Cell Signaling Technology. […] Protein bands intensities were analysed using Image Quant (version 5.0, GE Healthcare Life Sciences, Pittsburgh, PA, USA).

[3] = tested on: CFPAC cells; experiment: MTT cytotoxicity assay, CFPAC; type: cell-based; conditions: Homo sapiens, 48 h, mean ± SD
Protocol: as §1

[4] = tested on: caspase 3 and 7; experiment: Caspase-3/7 activity (Apo-ONE fluorescent assay) in MOLT-4 cells; type: cell-based, human; conditions: 5× IC50, 18 h, normalized to 1% DMSO
Protocol: (§2) Louis, MO). The induction of cell apoptosis was analyzed by Apo-ONE® Homogeneous Caspase-3/7 Assay (Promega, Madison, WI, USA). […] The fluorescence in each well was measured in triplicate (excitation at 485 nm, emission measured at 520 nm) using a microplate reader FLUOStar Omega (BMG-Labtech, Offenburg, Germany). For normalization of the data, the caspase activity in the control cells (exposed to 1% DMSO) was taken as 1.0. […] Luminescence was measured (in triplicate) using a microplate reader FLUOStar Omega. For normalization of the data, the caspase activity in the control cells (exposed to 1% DMSO) was taken as 1.0.

[5] = tested on: caspases 8/9; experiment: Caspase-Glo 8 and 9 luminescent activity assay in K562 cells; type: cell-based, human; conditions: K562, 5× IC50, 6 h, control 1% DMSO = 1.0
Protocol: as §2

SMILES | IC50 [1] | level of IKZF1 and IKZF3 (immunoblotting) [2] | IC50 [3] | activation of caspase 3/7 [4] | increase of activity of caspases 8/9 compared to the control [5]
CCC12C(=O)C(CC)(C(c3ccccc3)=C1c1ccccc1)C1C(=O)N(CC(O)CNC(C)C)C(=O)C12 (centres unmarked) [Compound 5] | 20 ± 2.3 µM | significant diminution | > 1000 µM | strong activation | 
CCC12C(=O)C(CC)(C(c3ccccc3)=C1c1ccccc1)C1C(=O)N(CCN3CCCCC3)C(=O)C12 (centres unmarked) [Compound 3] | 9 ± 0.6 µM | modest reduction | > 1000 µM | strong activation | more than 2 fold
CN(C)CCN1C(=O)C2C(C1=O)C1(c3ccccc3)CC2(c2ccccc2)C(c2ccccc2)=C1c1ccccc1 (centres unmarked) [Compound 6] | 4 ± 0.2 µM | significant diminution | 40 ± 3.1 µM | strong activation | more than 2 fold
